From patent US4997757A, “Process for detecting potential carcinogens” (GeneBioMed, Inc., priority 1988, dated 1991)

Assays:
Salmonella typhimurium = settings: cited from earlier work
[1] = SCC (sister chromatid conversion) intrachromosomal recombination system, deletion alleles of his3; format: cell-based, Saccharomyces cerevisiae; settings: yeast strain rs112; versus untreated control; read-out: induction for SCC / increase in SCC
Excerpt: (§1) In the most preferred embodiment it is preferable to grow the cells in a medium which selects against the occurrence of the genome rearrangement to keep the control values as low as possible. In the embodiment described in FIG. 1 it is shown that the LEU2 gene of construct 10 is lost after the genome rearrangement which results in construct 22. Therefore cells containing construct 10, before the rearrangement are able to grow in the absence of leucine in the medium, but cells containing construct 22, after the genome rearrangement are not able to grow in the absence of leucine. After the genome rearrangement cells containing construct 22 are able to grow in the absence of histidine in the medium, but cells containing construct 10 before the genome rearrangement are not able to grow in the absence of histidine. Therefore the selection scheme which was used for Example 3 involves growth of the yeast culture in medium lacking leucine but containing histidine before and during the exposure to the potential carcinogens or other test agents. After the exposure the cells which have undergone genome rearrangement are selected on medium lacking histidine but containing leucine.
(§2) It is preferred that, when the cells are to be grown in the presence of the agent, logarithmic phase cultures are used. In one embodiment, for each of the test strains, a cell suspension of 2×10^6 cells per milliliter-LEU medium be prepared from a logarithmic phase culture pregrown in liquid-LEU medium. The whole mix is aliquoted into portions of 5 milliliter into disposable plastic tubes in the presence of the agent to be tested, the tubes are sealed and shaken continuously for 17 hours.
(§3) After the yeast cells have been exposed to both the agent to be tested and the selection medium under the conditions of the test and have been incubated for some time period of about more than one day preferably at 30 degrees Celsius or any other temperature which allows growth of the yeast cells used, the number of colonies formed by cells which have undergone genome rearrangement are counted and compared with the number of colonies of yeast cells identical in substantially every respect with the exception of not having been exposed to the suspected carcinogenic agent. The rates of genome rearrangement for both the control and experimental samples are then compared.
(§4) Plasmids were constructed as substrates to study intrachromosomal recombination; see an earlier part of the specification and Example 1. The plasmids pRS6 (FIG. 7, construct 108) and pRS11 (FIG. 9, construct 118) both contained an internal fragment of the HIS3 gene as well as one selectable marker (LEU2). pRS11 in addition contained the 2 μm origin of replication to select for the presence of the plasmid after plasmid excision. pRS11FRT-had the FLP recombination site disrupted (see Example 1). Yeast strains RSY6 containing construct 10, RSY11 containing construct 118 and RSY11FRT- (see Example 1) were used. They contained the respective pRS plasmids integrated into the HIS3 gene of strain S35/2-10C giving rise to disruptions of the HIS3 gene construct 10 or analogs to it (FIG. 10). The two resulting his3 deletion alleles (FIG. 10) shared about 400 basepairs of homology and thus could interact with each other by homologous recombination. Reversion of his- to HIS+ occurred at a frequency of about 4×10^-4 in all three strains. All of 100 tested HIS+ revertants of strain RSY6 were leu-. Because of this observation strains used for recombination studies were always pregrown on -LEU medium to prevent growth of HIS+ revertants. Therefore the frequency of HIS+ revertants is a measure of the recombination rate.
(§5) The strain used in this example was RS112 which was obtained by crossing strain RSY6 with strain 428. RSY6 contains the SCC system and was deposited at November 30 under "ATCC designation number 20871" with the American Type Culture Collection of 12301 Parklawn Drive, Rockville, Md. 20852. […]

[2] = tested on: strain RS112 (his3 deletion alleles); assay: as above; format: cell-based, Saccharomyces cerevisiae; settings: for SCC/10^4 cells: strain RS112
Excerpt: as §1, §2, §3, §4, §5

rats = settings: cited from earlier work
[3] = cited from earlier work; for carcinogenicity: in vivo
[4] = tested on: strain RS112 (heteroalleles ade2-40 and ade2-101); assay: ICC (interchromosomal gene conversion) between heteroalleles ade2-40 and ade2-101; format: cell-based, Saccharomyces cerevisiae; settings: for ICC/10^5 cells: strain RS112
Protocol: as §2
(§6) The strain used in this example was RS112 which was obtained by crossing strain RSY6 with strain 428. RSY6 contains the SCC system and was deposited at November 30 under "ATCC designation number 20871" with the American Type Culture Collection of 12301 Parklawn Drive, Rockville, Md. 20852. Strain 428 was obtained from M. Snyder, Department of Biology, at Yale University, New Haven, Conn. and was used because it contains the mutation his3Δ-200, the construction of which has been described in an article by Struhl entitled "Naturally occurring poly(dA-dT) sequences are upstream promoter elements of constitutive transcription in yeast, published in Proc. Natl. Acad. Sci. USA 82 on pages 8419-8423. Strains containing the his3Δ-200 mutation are readily available to those skilled in the art.
Strain RS112 has the following genotype: [drawing 2]
Values for the intrachromosomal recombination system between deletion alleles of his3 are designated as SCC. Also strain RS112 contained heteroallelic mutations in ade2 so that the frequency of interchromosomal gene conversion (ICC) between heteroalleles in a diploid was determined. ICC was measured as recombination between the heteroalleles ade2-40 and ade2-101 by selecting for ADE+. Values obtained are given to compare the performance of the two systems.
The frequencies for ICC are given in events per 10^5 survivals, and the frequencies for SCC are given in events per 10^4 survivals. It has to be noted that for sister chromatid recombination in mammalian cells the increase even with potent carcinogens is usually less than ten fold and also slight increases have been taken as positive results. For instance an increase in frequency of two fold has been taken to be significant; see a publication by Rudiger et al. entitled "Metabolites of diethylstilbestrol induce sister chromatid exchange in human cultured fibroblasts." published in Nature 281:392-394).

[5] = survival of yeast exposed to agent; format: cell-based, Saccharomyces cerevisiae
Excerpt: It is preferred to conduct a preliminary experiment to determine those concentrations of the agent to be tested which should be evaluated in the main experiment. Yeast cells are exposed to a wide range of concentrations of the agent to be tested to determine its cytotoxicity.
as §2, §6

strain RS112 [6] = assay: plating efficiency after MBC treatment; format: cell-based, Saccharomyces cerevisiae; settings: 100 μg/ml, 5 to 7 hours at 30° C.
Protocol: (§7) The applicant has reproduced the method published in the aforementioned paper by Fabre et al. Mol. Gen. Genet. 195:139143 (1984) to obtain mostly G1 (stationary) and G2 arrested cells by using Methyl-Benzimidazole-Carbamate (MBC) to arrest the cells in G2 : Strain used for the experiment was RS112, the genotype of which is given below: [drawing 1] Media were the same as described at another part of the specification. Stationary cells were obtained by incubation of cells in liquid YPD at 30° C. for 48 hours. Stationary cells were more than 85% in G1. To obtain cells arrested in G2 the cells were incubated in YPD containing the fungicide methyl benzimidazol-2-yl carbamate (MBC) (stock solution 10 mg/ml) at a concentration of 100 μg/ml at a cell density of 10^7 cells/ml for 5 to 7 hours at 30° C. […] Log phase cells were obtained by incubation of the cells in YEPD for the same time period without MBC. Log phase cultures contained cells in all stages. The cells were irradiated with UV light at a dose of 0-40 J/m2 and cells were held at G1, log or G2 for another two hours to allow repair of the damage in the respective stage. The cells were than collected by centrifugation and washed twice, plated for survivals onto SC medium, for determination of interchromosomal conversion events onto SC-Ade and for determination of SCC onto SC-His.

strain RS112 [7] = assay: G2 arrest of yeast cells by MBC; format: cell-based, Saccharomyces cerevisiae; settings: 100 μg/ml, 5 to 7 hours at 30° C.
Protocol: as §7

mice = settings: cited from earlier work
mammalian cells [8] = settings: cited from earlier work
mammalian cells [9] = settings: cited from earlier work; remark: listed apart in the source
rat liver = settings: in vivo; cited from earlier work

In the case of C=O [Formaldehyde], the “Ames Assay result” value (Salmonella typhimurium) is listed as “negative”, the fold induction [1] is listed as about 20 and the “SCC result in words” value [2] is listed as “test positive”. For the same compound, the “SCC/10^4 cells” value ([2]; 0.015 mg/ml) was 3.8 /10^4 cells, the “SCC/10^4 cells” value ([2]; 0.03 mg/ml) was 7.3 /10^4 cells and the “SCC/10^4 cells” value ([2]; 0.05 mg/ml) was 29.5 /10^4 cells. The “SCC/10^4 cells” value ([2]; 0.07 mg/ml) was 40.0 /10^4 cells, the carcinogenicity (rats) was “causes nasal cancer in rats” and the carcinogenicity [3] was “known carcinogen”. For the same compound, the tumor promotion ([3]; proposed) was “proposed to act as tumor promoter”, the “ICC result in words” value [4] was “induces ICC” and the “ICC/10^5 cells” value ([4]; 0.015 mg/ml) was 2.5 /10^5 cells. The “ICC/10^5 cells” value ([4]; 0.03 mg/ml) was 2.1 /10^5 cells, the “ICC/10^5 cells” value ([4]; 0.05 mg/ml) was 5.4 /10^5 cells and the “ICC/10^5 cells” value ([4]; 0.07 mg/ml) was 7.1 /10^5 cells. It also gave a viability at 17 h ([5]; yeast strain rs112, 0.015 mg/ml) of 97%, a viability at 17 h ([5]; yeast strain rs112, 0.03 mg/ml) of 53% and a viability at 17 h ([5]; yeast strain rs112, 0.05 mg/ml) of 4.2%. For the same compound, the viability at 17 h ([5]; yeast strain rs112, 0.07 mg/ml) was 2.2%.

With COC(=O)Nc1nc2ccccc2[nH]1 [MBC, methyl benzimidazol-2-yl carbamate] the plating efficiency (strain RS112 [6]) was “never decreased” and the “cells showing characteristic G2 arrest” value (strain RS112 [7]) was “more than 90%”.

In the case of C=CCc1ccc2c(c1)OCO2 [Safrole], the carcinogenicity (mice) is given as “produces liver cancer in mice and rats”, the SCE assay result (mammalian cells [8]) is given as “negative” and the “Ames Assay result” value (Salmonella typhimurium) is given as “negative”. For the same compound, the “chromosomal aberration assay result” value (mammalian cells [9]) was “negative”, the “SCC/10^4 cells” value ([2]; 0.05 %) was 0.94 /10^4 cells and the “SCC/10^4 cells” value ([2]; 0.1 %) was 1.22 /10^4 cells. For the same compound, the “SCC/10^4 cells” value ([2]; 0.2 %) was 2.4 /10^4 cells, the “SCC/10^4 cells” value ([2]; 0.4 %) was 14.1 /10^4 cells and the carcinogenicity (rats) was “produces liver cancer in mice and rats”. The carcinogenicity [3] was “known carcinogens”, the “rat liver foci assay result” value (rat liver) was “negative” and the “ICC/10^5 cells” value ([4]; 0.05 %) was 1.07 /10^5 cells. For the same compound, the “ICC/10^5 cells” value ([4]; 0.1 %) was 0.59 /10^5 cells, the “ICC/10^5 cells” value ([4]; 0.2 %) was 0.82 /10^5 cells and the “ICC/10^5 cells” value ([4]; 0.4 %) was 1.36 /10^5 cells. It also gave a viability at 17 h ([5]; yeast strain rs112, 0.05 %) of 112%, a viability at 17 h ([5]; yeast strain rs112, 0.1 %) of 95% and a viability at 17 h ([5]; yeast strain rs112, 0.2 %) of 76%. It also gave a viability at 17 h ([5]; yeast strain rs112, 0.4 %) of 4.6%.
